Laboratory results: ChEMBL document CHEMBL1144655, “Potent and selective isophthalamide S2 hydroxyethylamine inhibitors of BACE1” (Bioorg Med Chem Lett, 2007)
pIC50: −log10 of the molar value.

Tests used:
Beta-secretase 1 = Beta-secretase 1 (Homo sapiens, UniProt P56817); assay: Inhibition of BACE1
Cathepsin D = Cathepsin D (Homo sapiens, UniProt P07339); assay: Inhibition of cathepsin D
Cathepsin D, sequence (P07339 65-162 limits assumed): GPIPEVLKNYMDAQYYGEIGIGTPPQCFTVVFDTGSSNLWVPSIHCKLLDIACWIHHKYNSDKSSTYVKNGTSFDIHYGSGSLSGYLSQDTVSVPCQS
Cathepsin D, sequence (P07339 169-412 limits assumed): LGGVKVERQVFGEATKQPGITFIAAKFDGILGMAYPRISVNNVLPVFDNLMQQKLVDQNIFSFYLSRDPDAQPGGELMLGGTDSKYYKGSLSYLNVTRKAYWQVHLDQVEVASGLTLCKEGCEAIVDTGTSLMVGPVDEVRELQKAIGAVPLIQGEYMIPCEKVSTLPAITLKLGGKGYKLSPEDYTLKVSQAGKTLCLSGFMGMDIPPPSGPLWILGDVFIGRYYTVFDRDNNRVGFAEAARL

Beta-secretase 1, sequence (P56817 whole entry): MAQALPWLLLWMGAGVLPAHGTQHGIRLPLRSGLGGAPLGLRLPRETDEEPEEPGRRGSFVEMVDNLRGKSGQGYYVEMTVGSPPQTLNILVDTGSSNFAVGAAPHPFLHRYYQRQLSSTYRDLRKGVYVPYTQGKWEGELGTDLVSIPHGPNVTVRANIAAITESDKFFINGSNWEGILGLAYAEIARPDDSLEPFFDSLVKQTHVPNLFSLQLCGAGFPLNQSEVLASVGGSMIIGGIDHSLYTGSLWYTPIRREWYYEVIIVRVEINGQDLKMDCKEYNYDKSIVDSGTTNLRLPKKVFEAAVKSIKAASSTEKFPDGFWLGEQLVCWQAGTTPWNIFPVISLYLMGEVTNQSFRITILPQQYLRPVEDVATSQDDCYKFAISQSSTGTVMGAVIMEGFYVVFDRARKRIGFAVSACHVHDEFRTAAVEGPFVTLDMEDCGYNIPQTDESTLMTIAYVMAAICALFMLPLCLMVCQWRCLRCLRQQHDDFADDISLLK

| Structure (SMILES) | pIC50 (Beta-secretase 1) | pIC50 (Cathepsin D) |
| --- | --- | --- |
| CCCNC(=O)c1cc(C#N)cc(C(=O)N[C@@H](Cc2ccccc2)[C@H](O)CNCc2cccc(OC)c2)c1 | 6.11 | < 4.70 |
| CCCNC(=O)c1cc(C(N)=O)cc(C(=O)N[C@@H](Cc2ccccc2)[C@H](O)CNCc2cccc(OC)c2)c1 | 5.72 | < 4.70 |
| CCCN(CCC)C(=O)c1cc(C(N)=O)cc(C(=O)N[C@@H](Cc2cc(F)cc(F)c2)[C@H](O)CNCc2cccc(OC)c2)c1 |  | 5.62 |
| CCCN(CCC)C(=O)c1cc(C)cc(C(=O)N[C@@H](Cc2cc(F)cc(F)c2)[C@H](O)CNCc2cccc(CC)c2)c1 | 8.70 | 6.82 |
| CCCN(CCC)C(=O)c1cc(C(N)=O)cc(C(=O)N[C@@H](Cc2cc(F)cc(F)c2)[C@H](O)CNCc2cccc(CC)c2)c1 | 8.30 | 5.80 |
| CCCN(CCC)C(=O)c1cc(C(N)=O)cc(C(=O)N[C@@H](Cc2ccc(O)cc2)[C@H](O)CNCc2cccc(OC)c2)c1 | 6.52 | < 4.70 |

Now from value to compound:

| pIC50 (Beta-secretase 1) | pIC50 (Cathepsin D) | Structure (SMILES) |
| --- | --- | --- |
| 6.60 | 5.44 | CCCN(CCC)C(=O)c1cc(C(=O)N[C@@H](Cc2ccccc2)[C@H](O)CNCc2cccc(OC)c2)cc(C(=O)N(CCC)CCC)c1 |
| 6.44 | 6.24 | CCCN(CCC)C(=O)c1cc(CC#N)cc(C(=O)N[C@@H](Cc2ccccc2)[C@H](O)CNCc2cccc(OC)c2)c1 |
| 7.15 | 5.42 | CCCN(CCC)C(=O)c1cc(C(=O)N[C@@H](Cc2ccccc2)[C@H](O)CNCc2cccc(OC)c2)cc(C(=O)N(C)C)c1 |
| 7.00 | 5.55 | CCCN(CCC)C(=O)c1cc(C(N)=O)cc(C(=O)N[C@@H](Cc2ccccc2)[C@H](O)CNCc2cccc(OC)c2)c1 |
| 7.00 | 6.35 | CCCN(CCC)C(=O)c1cc(C)cc(C(=O)N[C@@H](Cc2ccccc2)[C@H](O)CNCc2cccc(OC)c2)c1 |
| 7.05 | 6.18 | CCCN(CCC)C(=O)c1cc(C#N)cc(C(=O)N[C@@H](Cc2ccccc2)[C@H](O)CNCc2cccc(OC)c2)c1 |
| 7.52 | 5.44 | CCCN(CCC)C(=O)c1cc(C(=O)O)cc(C(=O)N[C@@H](Cc2ccccc2)[C@H](O)CNCc2cccc(OC)c2)c1 |
| 6.88 | 6.06 | CCCN(CCC)C(=O)c1cc(C(=O)N[C@@H](Cc2ccccc2)[C@H](O)CNCc2cccc(OC)c2)cc(C(=O)OCC)c1 |
